From PMC6396881 (European journal of medicinal chemistry, 2018)

What was measured:
DYRK1A = DYRK1A (Homo sapiens, UniProt Q13627); test: KINOMEscan qPCR-based binding assay; conditions: for fold improvement in DYRK1A binding (Kd) as compared to hit 3–1: ratio of Kd
human β-cell [1] = test: Human β-cell proliferation assay; type: cell-based; conditions: 5 μM, 96 hours, KI67 labeling of insulin-labeled cells, compared to vehicle-treated cells
human β-cell [2] = conditions: cited from earlier work

## O=c1[nH]c2ccc(C3=NN=C(NCc4cccnc4)SC3)cc2[nH]1 [3–13, N-(pyridine-3yl)methyl-5-(benzo[d]imidazol-2(3H)-one)-6H-1,3,4-thiadiazin-2-amine]
DYRK1A
  fold improvement in DYRK1A binding (Kd) as compared to hit 3–1: 5 fold

## CC(NC1=NN=C(c2ccc3[nH]c(=O)[nH]c3c2)CS1)c1ccccc1 (centres unmarked) [3–16, N-(1-phenylethyl)-5-(benzo[d]imidazol-2(3H)-one)-6H-1,3,4-thiadiazin-2-amine]
DYRK1A
  fold improvement in DYRK1A binding (Kd) as compared to hit 3–1: 4 fold

## O=c1[nH]c2ccc(C3=NN=C(NCc4ccc(F)cc4)SC3)cc2[nH]1 [Compound 3–5, N-(4-fluorobenzyl)-5-(benzo[d]imidazol-2(3H)-one)-6H-1,3,4-thiadiazin-2-amine]
Human β-cell [1]
  human β-cell proliferation: induced human β-cell proliferation

## COc1ccc2c(c1)[nH]c1c(C)nccc12 [Harmine, reference compound]
Human β-cell [2]
  fold induction in human pancreatic β-cell proliferation: 10–15 fold
DYRK1A
  % DMSO Ctrl, DYRK1A: < 1%
